Measurements: patent US11739252B2, “Microbecidal composition and a method for mitigating internal microbiological influenced corrosion in petroleum transporting pipelines” (Indian Oil Corporation Limited, priority 2020, dated 2023)

System: MIC causing microbes
Assay: Synergistic effect of components: antimicrobial screening against MIC causing microbes and their mediated corrosion
Assay type: cell-based
Settings: dosed at 10000 ppm
Method: To test the MIC activity, the microbecidal composition was subjected to antimicrobial screening against MIC causing microbes and their mediated corrosion. 10 gram of muck sample from a pipeline having MIC was used as inoculum. The growth of the microbes was followed by visual observation as well as by counting the CFU/ml on respective media. The growth was compared with control i.e., without microbecidal composition. Further, individual components of the microbecidal composition were evaluated to evaluate the synergistic effect of the composition (Table 1). As observed from the Table-1 below, when the individual components of the microbecidal composition was used, no significant MIC reduction was observed.

With `CCO` [Alcohol] the “Percentage (%) reduction in MIC” value (base corrosion rate 12 mpy) was 10% and the “After dosing of Microbecidal composition (mpy)” value (base corrosion rate without composition 12 mpy, muck sample inoculum) was 10.75 mpy.
